Experimental data as given in ChEMBL document CHEMBL4251578, “Design, synthesis and biological evaluation of novel 2-aminobenzamides containing dithiocarbamate moiety as histone deacetylase inhibitors and potent antitumor agents” (Eur J Med Chem, 2018).
The source made the active and inactive calls. The rule behind the calls is not given here.

What was measured:
[1] = system: SMMC-7721; experiment: Induction of apoptosis in human SMMC7721 cells assessed as late apoptotic cells at 4 umol/L after 72 hrs by Alexa Fluor 488 Annexin/propidium iodide staining-based flow cytometric analysis (reference value: 0.29%); assay type: functional
[2] = system: HeLa; experiment: Antiproliferative activity against human HeLa cells at 8 uM after 72 hrs by CCK-8 assay relative to control; assay type: functional
[3] = target: Histone deacetylase 2 (Homo sapiens, UniProt Q92769); experiment: Inhibition of human recombinant HDAC2 using Fluor de Lys-Green as substrate preincubated for 5 mins followed by substrate addition and measured after 1 hr by fluorescence assay
Histone deacetylase 2, sequence (Q92769 whole entry): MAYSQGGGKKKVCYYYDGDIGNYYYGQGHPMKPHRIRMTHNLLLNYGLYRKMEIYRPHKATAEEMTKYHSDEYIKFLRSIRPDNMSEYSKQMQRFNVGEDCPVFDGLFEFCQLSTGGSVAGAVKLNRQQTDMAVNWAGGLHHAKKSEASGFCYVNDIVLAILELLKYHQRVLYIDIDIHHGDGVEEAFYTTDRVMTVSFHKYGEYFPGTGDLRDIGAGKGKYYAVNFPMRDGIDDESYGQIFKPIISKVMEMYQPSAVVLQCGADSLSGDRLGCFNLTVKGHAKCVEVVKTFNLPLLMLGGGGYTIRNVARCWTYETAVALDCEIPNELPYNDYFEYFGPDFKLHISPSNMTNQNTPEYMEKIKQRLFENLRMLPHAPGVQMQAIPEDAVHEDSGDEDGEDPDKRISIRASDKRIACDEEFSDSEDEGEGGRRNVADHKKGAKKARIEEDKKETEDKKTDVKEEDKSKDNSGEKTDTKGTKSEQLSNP

[4] = system: SMMC-7721; experiment: Inhibition of colony formation in human SMMC7721 cells after 7 days by crystal violet staining-based assay; assay type: functional, cell-based
[5] = system: SMMC-7721; experiment: Induction of apoptosis in human SMMC7721 cells assessed as early apoptotic cells at 1 umol/L after 72 hrs by Alexa Fluor 488 Annexin/propidium iodide staining-based flow cytometric analysis (reference value: 0.09%); assay type: functional
[6] = system: SMMC-7721; experiment: Induction of apoptosis in human SMMC7721 cells assessed as late apoptotic cells at 0.125 umol/L after 72 hrs by Alexa Fluor 488 Annexin/propidium iodide staining-based flow cytometric analysis (reference value: 0.29%); assay type: functional
[7] = system: SMMC-7721; experiment: Cell cycle arrest in human SMMC7721 cells assessed as accumulation of cells at S phase at 1 umol/L after 72 hrs by propidium iodide staining-based flow cytometric analysis (reference value: 5.21%); assay type: functional
[8] = system: SMMC-7721; experiment: Induction of apoptosis in human SMMC7721 cells assessed as early apoptotic cells at 0.125 umol/L after 72 hrs by Alexa Fluor 488 Annexin/propidium iodide staining-based flow cytometric analysis (reference value: 0.09%); assay type: functional
[9] = system: A-375; experiment: Antiproliferative activity against human A375 cells at 2 uM after 72 hrs by CCK-8 assay relative to control; assay type: functional; conditions: A-375, 72 h
[10] = system: A-375; experiment: Antiproliferative activity against human A375 cells after 72 hrs by CCK-8 assay; assay type: functional, cell-based; conditions: A-375, 72 h
[11] = system: SMMC-7721; experiment: Induction of apoptosis in human SMMC7721 cells assessed as necrotic cells at 4 umol/L after 72 hrs by Alexa Fluor 488 Annexin/propidium iodide staining-based flow cytometric analysis (reference value: 2.48%); assay type: functional
[12] = system: SMMC-7721; experiment: Induction of apoptosis in human SMMC7721 cells assessed as late apoptotic cells at 1 umol/L after 72 hrs by Alexa Fluor 488 Annexin/propidium iodide staining-based flow cytometric analysis (reference value: 0.29%); assay type: functional
[13] = system: SMMC-7721; experiment: Induction of apoptosis in human SMMC7721 cells assessed as necrotic cells at 1 umol/L after 72 hrs by Alexa Fluor 488 Annexin/propidium iodide staining-based flow cytometric analysis (reference value: 2.48%); assay type: functional
[14] = system: SMMC-7721; experiment: Cell cycle arrest in human SMMC7721 cells assessed as accumulation of cells at S phase at 0.125 umol/L after 72 hrs by propidium iodide staining-based flow cytometric analysis (reference value: 5.21%); assay type: functional
[15] = system: SMMC-7721; experiment: Cell cycle arrest in human SMMC7721 cells assessed as accumulation of cells at G0/G1 phase at 1 umol/L after 72 hrs by propidium iodide staining-based flow cytometric analysis (reference value: 80.65%); assay type: functional
[16] = system: SMMC-7721; experiment: Cell cycle arrest in human SMMC7721 cells assessed as accumulation of cells at G2/M phase at 4 umol/L after 72 hrs by propidium iodide staining-based flow cytometric analysis (reference value: 14.14%); assay type: functional
[17] = system: SMMC-7721; experiment: Induction of apoptosis in human SMMC7721 cells assessed as necrotic cells at 0.125 umol/L after 72 hrs by Alexa Fluor 488 Annexin/propidium iodide staining-based flow cytometric analysis (reference value: 2.48%); assay type: functional
[18] = system: SMMC-7721; experiment: Cell cycle arrest in human SMMC7721 cells assessed as accumulation of cells at G2/M phase at 1 umol/L after 72 hrs by propidium iodide staining-based flow cytometric analysis (reference value: 14.14%); assay type: functional
[19] = system: SMMC-7721; experiment: Induction of apoptosis in human SMMC7721 cells assessed as early apoptotic cells at 4 umol/L after 72 hrs by Alexa Fluor 488 Annexin/propidium iodide staining-based flow cytometric analysis (reference value: 0.09%); assay type: functional
[20] = system: SMMC-7721; experiment: Induction of apoptosis in human SMMC7721 cells assessed as viable cells at 1 umol/L after 72 hrs by Alexa Fluor 488 Annexin/propidium iodide staining-based flow cytometric analysis (reference value: 97.14%); assay type: functional; conditions: SMMC-7721, 72 h, read-out: Activity
[21] = system: SMMC-7721; experiment: Induction of apoptosis in human SMMC7721 cells assessed as viable cells at 0.125 umol/L after 72 hrs by Alexa Fluor 488 Annexin/propidium iodide staining-based flow cytometric analysis (reference value: 97.14%); assay type: functional; conditions: SMMC-7721, 72 h, read-out: Activity
[22] = system: SMMC-7721; experiment: Induction of apoptosis in human SMMC7721 cells assessed as viable cells at 4 umol/L after 72 hrs by Alexa Fluor 488 Annexin/propidium iodide staining-based flow cytometric analysis (reference value: 97.14%); assay type: functional; conditions: SMMC-7721, 72 h, read-out: Activity
[23] = system: MGC-803; experiment: Antiproliferative activity against human MGC803 cells at 2 uM after 72 hrs by CCK-8 assay relative to control; assay type: functional; conditions: MGC-803, 72 h
[24] = system: SMMC-7721; experiment: Cell cycle arrest in human SMMC7721 cells assessed as accumulation of cells at G0/G1 phase at 4 umol/L after 72 hrs by propidium iodide staining-based flow cytometric analysis (reference value: 80.65%); assay type: functional
[25] = system: SMMC-7721; experiment: Cell cycle arrest in human SMMC7721 cells assessed as accumulation of cells at G2/M phase at 0.125 umol/L after 72 hrs by propidium iodide staining-based flow cytometric analysis (reference value: 14.14%); assay type: functional
[26] = system: MGC-803; experiment: Antiproliferative activity against human MGC803 cells at 8 uM after 72 hrs by CCK-8 assay relative to control; assay type: functional; conditions: MGC-803, 72 h
[27] = system: NCI-H1299; experiment: Antiproliferative activity against human NCI-H1299 cells after 72 hrs by CCK-8 assay; assay type: functional, cell-based; conditions: NCI-H1299, 72 h
[28] = system: SMMC-7721; experiment: Cell cycle arrest in human SMMC7721 cells assessed as accumulation of cells at S phase at 4 umol/L after 72 hrs by propidium iodide staining-based flow cytometric analysis (reference value: 5.21%); assay type: functional
[29] = system: SMMC-7721; experiment: Antiproliferative activity against human SMMC7721 cells after 72 hrs by CCK-8 assay; assay type: functional, cell-based; conditions: SMMC-7721, 72 h
[30] = system: HeLa; experiment: Antiproliferative activity against human HeLa cells at 2 uM after 72 hrs by CCK-8 assay relative to control; assay type: functional
[31] = system: A-375; experiment: Antiproliferative activity against human A375 cells at 8 uM after 72 hrs by CCK-8 assay relative to control; assay type: functional; conditions: A-375, 72 h
[32] = system: HeLa; experiment: Antiproliferative activity against human HeLa cells after 72 hrs by CCK-8 assay; assay type: functional, cell-based
[33] = system: SMMC-7721; experiment: Cell cycle arrest in human SMMC7721 cells assessed as accumulation of cells at G0/G1 phase at 0.125 umol/L after 72 hrs by propidium iodide staining-based flow cytometric analysis (reference value: 80.65%); assay type: functional
[34] = system: HCT-116; experiment: Antiproliferative activity against human HCT116 cells after 72 hrs by CCK-8 assay; assay type: functional, cell-based; conditions: HCT-116, 72 h
[35] = system: MGC-803; experiment: Antiproliferative activity against human MGC803 cells after 72 hrs by CCK-8 assay; assay type: functional, cell-based; conditions: MGC-803, 72 h

## Nc1ccc(F)cc1NC(=O)c1ccc(CNC(=O)/C=C/c2cccnc2)cc1
[1]
  Activity: 17.32%
[2]
  inhibition at 8 µM: 41.4%
[3]
  IC50: 370 nM
[4]
  inhibition: Active
[5]
  Activity: 4.59%
[6]
  Activity: 11.62%
[7]
  Activity: 5.26%
[8]
  Activity: 6.02%
[9]
  inhibition at 2 µM: 21.3%
[10]
  IC50: 7670 nM
[11]
  Activity: 3.06%
[12]
  Activity: 10.22%
[13]
  Activity: 11.25%
[14]
  Activity: 5.71%
[15]
  Activity: 76.07%
[16]
  Activity: 18.05%
[17]
  Activity: 4.08%
[18]
  Activity: 18.67%
[19]
  Activity: 5.45%
[20]
  viability at 1 µM: 73.9%
[21]
  viability at 0.125 µM: 78.3%
[22]
  viability at 4 µM: 74.2%
[23]
  inhibition at 2 µM: 7.8%
[24]
  Activity: 76.41%
[25]
  Activity: 17.2%
[26]
  inhibition at 8 µM: 54.5%
[27]
  IC50: 16300 nM
[28]
  Activity: 5.54%
[29]
  IC50: > 26000 nM
[30]
  inhibition at 2 µM: 14.7%
[31]
  inhibition at 8 µM: 54.3%
[32]
  IC50: 11800 nM

## CC1CCCCN1C(=S)SCc1ccc(C(=O)Nc2ccccc2N)cc1 (centres undefined)
[2]
  inhibition at 8 µM: 76.3%
[33]
  Activity: Dose-dependent effect
[9]
  inhibition at 2 µM: 42.5%
[10]
  IC50: 2610 nM
[34]
  IC50: 1320 nM
[35]
  IC50: 1610 nM
[23]
  inhibition at 2 µM: 64.4%
[26]
  inhibition at 8 µM: 86.9%
[27]
  IC50: 1300 nM
[29]
  IC50: 2950 nM
[30]
  inhibition at 2 µM: 45.5%
[31]
  inhibition at 8 µM: 85.2%
[32]
  IC50: 2300 nM

## Nc1ccccc1NC(=O)c1ccc(CSC(=S)N2CCc3ccccc32)cc1
[2]
  inhibition at 8 µM: 67%
[9]
  inhibition at 2 µM: 25.7%
[10]
  IC50: 4050 nM
[34]
  IC50: 2700 nM
[35]
  IC50: 2300 nM
[23]
  inhibition at 2 µM: 44%
[26]
  inhibition at 8 µM: 87%
[27]
  IC50: 2900 nM
[29]
  IC50: 3040 nM
[30]
  inhibition at 2 µM: 38%
[31]
  inhibition at 8 µM: 85.4%
[32]
  IC50: 3450 nM

## COC(=O)c1ccc2c(c1)CCN2C(=S)SCc1ccc(C(=O)Nc2ccccc2N)cc1
[2]
  inhibition at 8 µM: 60.1%
[9]
  inhibition at 2 µM: 37.5%
[10]
  IC50: 5880 nM
[34]
  IC50: 13200 nM
[35]
  IC50: 3280 nM
[23]
  inhibition at 2 µM: 37.8%
[26]
  inhibition at 8 µM: 73.1%
[27]
  IC50: 2020 nM
[29]
  IC50: > 32000 nM
[30]
  inhibition at 2 µM: 45.3%
[31]
  inhibition at 8 µM: 79.2%
[32]
  IC50: 3580 nM

## Nc1ccccc1NC(=O)c1ccc(CSC(=S)N2CCN(c3ccc(F)cc3)CC2)cc1
[2]
  inhibition at 8 µM: 64.5%
[9]
  inhibition at 2 µM: 20.9%
[10]
  IC50: 9400 nM
[34]
  IC50: 2730 nM
[35]
  IC50: 17200 nM
[23]
  inhibition at 2 µM: 18.8%
[26]
  inhibition at 8 µM: 48.7%
[27]
  IC50: 980 nM
[29]
  IC50: > 32000 nM
[30]
  inhibition at 2 µM: 60.8%
[31]
  inhibition at 8 µM: 76.3%

## Nc1ccccc1NC(=O)c1ccc(CSC(=S)N2CCN(c3ccccc3)CC2)cc1
[2]
  inhibition at 8 µM: 73.1%
[9]
  inhibition at 2 µM: 27.5%
[10]
  IC50: 3670 nM
[34]
  IC50: 2330 nM
[35]
  IC50: 2140 nM
[23]
  inhibition at 2 µM: 42.3%
[26]
  inhibition at 8 µM: 87.4%
[27]
  IC50: 610 nM
[29]
  IC50: 2860 nM
[30]
  inhibition at 2 µM: 62.2%
[31]
  inhibition at 8 µM: 88.6%
[32]
  IC50: 840 nM

## Nc1ccccc1NC(=O)c1ccc(CNC(=O)OCc2cccnc2)cc1 [ENTINOSTAT]
[1]
  Activity: 15.13%
[2]
  inhibition at 8 µM: 76.6%
[5]
  Activity: 11.21%
[6]
  Activity: 8.41%
[7]
  Activity: 5.35%
[8]
  Activity: 4.56%
[9]
  inhibition at 2 µM: 30.2%
[10]
  IC50: 3670 nM
[11]
  Activity: 7.47%
[12]
  Activity: 9.64%
[13]
  Activity: 5.22%
[14]
  Activity: 4.54%
[15]
  Activity: 79.1%
[16]
  Activity: 21.24%
[17]
  Activity: 9.56%
[18]
  Activity: 15.55%
[19]
  Activity: 20.06%
[34]
  IC50: 470 nM
[20]
  viability at 1 µM: 73.9%
[21]
  viability at 0.125 µM: 77.5%
[35]
  IC50: 4890 nM
[22]
  viability at 4 µM: 57.3%
[23]
  inhibition at 2 µM: 25.3%
[24]
  Activity: 71.21%
[25]
  Activity: 17.36%
[26]
  inhibition at 8 µM: 67.2%
[27]
  IC50: 6740 nM
[28]
  Activity: 7.55%
[29]
  IC50: 5970 nM
[30]
  inhibition at 2 µM: 62.2%
[31]
  inhibition at 8 µM: 88.7%
[32]
  IC50: 1600 nM
